Reference: patent US12624044B2, “SMARCA degraders and uses thereof” (Kymera Therapeutics, Inc., priority 2019, dated 2026)

Molecular target: SMARCA2 (Homo sapiens, UniProt P51531)
Experiment: MSD SMARCA2 degradation in A549 cell line
Type: cell-based
Details: 24 h; for Dmax: A549, A549 cells; for DC50: A549 cells, read-out: SMARCA2 MSD A549 degradation 24 h: Average external-Abs DC50
Protocol: Cells were seeded into 96-well plates (A549 cells: 2×10^4 cells/well/100 ul media) abd incubated overnight. The next day, 200 nl compound were added into the intermediate plate with Echo (Labcyte 550) from source plate containing a 3-fold serial dilution from top concentration of 1 mM. The culture medium was changed with 80 ul of fresh medium and 80 ul of 2× compound solution was added into the well to make a final concentration of 1000 nM, 333.3 nM, 111.1 nM, 37.04 nM, 12.35 nM, 4.115 nM, 1.372 nM, 0.457 nM, 0.152 nM and 0 nM (DMSO). The wells were mixed and then incubated for 24 hours. The media was aspirated from the cultures and 60 ul pre-chilled PIPA lysis buffer (Boston BioProducts BP-115D) with protease/phosphatase inhibitor (Roche 05892791001/Roche 04906837001) was added into the well to lyze the cells for 20 minutes at 4° C. The MSD plate (L15XA) was coated with 40 ul cell lysate and incubated at 4° C. overnight. The next day, the plate was washed three times with TBST (CST #9997S), 150 ul/well. The MSD plates was blocked with 150 ul blocking buffer per well and shaked for 1 hr at RT, 600 rpm. The blocking buffer was 3% Blocker A (MSD, R93BA-4) in TBST. The MSD plate was washed three times with 150 ul/well of TBST and 25 ul/well of detection antibody (Rabbit anti-SMARCA2/BRM antibody, 100 μg/ml, ab223735) was added at final concentration of 1 ug/ml diluted in 1% Blocking buffer and shaken for 1 hour at RT, 600 rpm. The MSD plate was washed three times with 150 ul/well of TBST and 25 ul/well of SULFO-TAG anti-rabbit antibody (MSD, R32AB-1) was added at final concentration of 1 ug/ml diluted in 1% Blocking buffer and shaken for 1 hour at RT, 600 rpm. The MSD plate was washed three times with 150 ul/well of TBST and 150 ul/well of 2×MSD reading buffer diluted from 4× (MSD, R92TC-2) with water was added. Lastly, the MSD instrument was read.
The letter codes for the percentage of SMARCA2 degradation after 24 hours (Dmax %) include: A (>90% degradation), B (>70-90% degradation), C (50-70% degradation), and D (<50% degradation).

SMARCA2, sequence (P51531 whole entry): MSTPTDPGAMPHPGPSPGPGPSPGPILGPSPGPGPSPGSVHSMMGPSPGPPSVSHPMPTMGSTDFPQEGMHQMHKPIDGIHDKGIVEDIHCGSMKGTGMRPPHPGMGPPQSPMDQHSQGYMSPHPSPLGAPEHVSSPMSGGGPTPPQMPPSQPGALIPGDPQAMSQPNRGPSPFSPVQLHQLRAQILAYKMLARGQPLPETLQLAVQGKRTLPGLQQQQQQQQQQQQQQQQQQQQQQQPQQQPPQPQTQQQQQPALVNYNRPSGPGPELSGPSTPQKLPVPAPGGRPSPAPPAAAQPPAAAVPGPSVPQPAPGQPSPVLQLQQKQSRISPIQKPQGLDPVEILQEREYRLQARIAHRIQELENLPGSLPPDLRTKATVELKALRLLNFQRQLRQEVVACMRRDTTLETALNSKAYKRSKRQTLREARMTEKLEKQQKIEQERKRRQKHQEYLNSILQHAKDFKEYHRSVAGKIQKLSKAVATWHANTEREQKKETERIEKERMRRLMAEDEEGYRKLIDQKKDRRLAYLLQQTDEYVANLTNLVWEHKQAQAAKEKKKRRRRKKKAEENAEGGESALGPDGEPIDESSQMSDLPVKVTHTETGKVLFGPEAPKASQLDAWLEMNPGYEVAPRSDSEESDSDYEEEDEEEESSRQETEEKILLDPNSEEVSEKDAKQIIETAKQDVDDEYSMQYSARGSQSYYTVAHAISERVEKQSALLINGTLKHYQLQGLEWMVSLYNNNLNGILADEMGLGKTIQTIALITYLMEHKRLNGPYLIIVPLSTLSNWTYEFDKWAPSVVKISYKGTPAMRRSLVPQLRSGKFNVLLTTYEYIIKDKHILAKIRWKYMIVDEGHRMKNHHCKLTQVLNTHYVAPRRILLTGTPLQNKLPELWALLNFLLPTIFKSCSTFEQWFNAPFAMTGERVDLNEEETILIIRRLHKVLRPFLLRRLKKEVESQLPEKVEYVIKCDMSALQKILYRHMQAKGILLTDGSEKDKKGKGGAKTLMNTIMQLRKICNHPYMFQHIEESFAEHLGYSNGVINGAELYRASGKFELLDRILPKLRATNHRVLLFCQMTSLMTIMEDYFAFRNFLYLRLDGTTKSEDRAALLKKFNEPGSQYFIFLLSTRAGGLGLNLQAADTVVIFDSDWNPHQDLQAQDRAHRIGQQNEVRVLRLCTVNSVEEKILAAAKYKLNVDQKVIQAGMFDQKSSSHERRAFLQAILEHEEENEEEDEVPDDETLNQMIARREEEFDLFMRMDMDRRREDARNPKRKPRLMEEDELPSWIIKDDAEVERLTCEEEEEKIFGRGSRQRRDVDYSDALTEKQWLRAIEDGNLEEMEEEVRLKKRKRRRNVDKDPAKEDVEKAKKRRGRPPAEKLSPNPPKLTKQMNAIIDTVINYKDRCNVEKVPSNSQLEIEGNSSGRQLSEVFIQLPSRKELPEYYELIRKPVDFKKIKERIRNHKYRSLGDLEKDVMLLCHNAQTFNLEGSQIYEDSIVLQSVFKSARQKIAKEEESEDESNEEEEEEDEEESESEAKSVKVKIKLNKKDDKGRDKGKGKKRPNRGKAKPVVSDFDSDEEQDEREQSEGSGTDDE

## Cc1ncsc1-c1ccc(CNC(=O)[C@@H]2C[C@@H](O)CN2C(=O)[C@@H](NC(=O)[C@H]2CC[C@H](Cc3cnc(N4C5CCC4CN(c4cc(-c6ccccc6O)nnc4N)C5)nc3)CC2)C(C)(C)C)c(C(F)(F)F)c1 [I-422]
  Dmax: > 90%
  DC50: 0.1 to 0.5 µM

## Cc1ncsc1-c1ccc(CNC(=O)[C@@H]2C[C@@H](O)CN2C(=O)[C@@H](NC(=O)[C@H]2CC3(C[C@H](CN4CCC(c5cnc(N6C7CCC6CN(c6cc(-c8ccccc8O)nnc6N)C7)nc5)CC4)C3)C2)C(C)(C)C)cc1 (stereo partly shown) [I-426]
  Dmax: > 90%
  DC50: 0.1 to 0.5 µM

## Cc1ncsc1-c1ccc(CNC(=O)[C@@H]2C[C@@H](O)CN2C(=O)[C@@H](NC(=O)C23CCC(CN(C)Cc4cnc(N5C6CCC5CN(c5cc(-c7ccccc7O)nnc5N)C6)nc4)(CC2)CC3)C(C)(C)C)cc1 [I-429]
  Dmax: 70 to 90%
  DC50: 0.1 to 0.5 µM

## Cc1ncsc1-c1ccc(CNC(=O)[C@@H]2C[C@@H](O)CN2C(=O)[C@@H](NC(=O)[C@H]2CC3(C[C@H](CN4CCC(n5cc(-c6cc(-c7ccccc7O)nnc6N)cn5)CC4)C3)C2)C(C)(C)C)cc1 (stereo partly shown) [I-432]
  Dmax: > 90%
  DC50: 0.1 to 0.5 µM

## Cc1ncsc1-c1ccc(CNC(=O)[C@@H]2C[C@@H](O)CN2C(=O)[C@@H](NC(=O)[C@H]2CC[C@@H](N3CCC(N4CCC(n5cc(-c6cc(-c7ccccc7O)nnc6N)cn5)CC4)CC3)CC2)C(C)(C)C)cc1 [I-435]
  Dmax: < 50%
  DC50: > 1 µM

## Cc1ncsc1-c1ccc(CNC(=O)[C@@H]2C[C@@H](O)CN2C(=O)[C@@H](NC(=O)[C@H]2CC[C@@H](N3CC(c4cnc(N5C6CCC5CN(c5cc(-c7ccccc7O)nnc5N)C6)nc4)C3)CC2)C(C)(C)C)cc1 [I-436]
  Dmax: > 90%
  DC50: 0.1 to 0.5 µM

## Cc1ncsc1-c1ccc(CNC(=O)[C@@H]2C[C@@H](O)CN2C(=O)[C@@H](NC(=O)[C@H]2CC[C@@H](c3cnc(N4C5CCC4CN(c4cc(-c6ccccc6O)nnc4N)C5)nc3C)CC2)C(C)(C)C)cc1 [I-440]
  Dmax: > 90%
  DC50: 0.1 to 0.5 µM

## Cc1ncsc1-c1ccc(CNC(=O)[C@@H]2C[C@@H](O)CN2C(=O)[C@@H](NC(=O)[C@H]2CC3CCC2C[C@@H]3c2cnc(N3C4CCC3CN(c3cc(-c5ccccc5O)nnc3N)C4)nc2)C(C)(C)C)cc1 (stereo partly shown) [I-441]
  Dmax: > 90%
  DC50: 0.1 to 0.5 µM

## Cc1ncsc1-c1ccc(CNC(=O)[C@@H]2C[C@@H](O)CN2C(=O)[C@@H](NC(=O)C2CC3CCC2C[C@H]3c2cnc(N3C4CCC3CN(c3cc(-c5ccccc5O)nnc3N)C4)nc2)C(C)(C)C)c(C(F)(F)F)c1 (stereo partly shown) [I-442]
  Dmax: 50 to 70%
  DC50: 0.501 to 1 µM

## Cc1ncsc1-c1ccc(CNC(=O)[C@@H]2C[C@@H](O)CN2C(=O)[C@@H](NC(=O)[C@H]2C[C@]3(C[C@H](CN(C)Cc4cnc(N5C6CCC5CN(c5cc(-c7ccccc7O)nnc5N)C6)nc4)C3)C2)C(C)(C)C)cc1 (stereo partly shown) [I-443]
  DC50: 0.1 to 0.5 µM

## Cc1ncsc1-c1ccc(CNC(=O)[C@@H]2C[C@@H](O)CN2C(=O)[C@@H](NC(=O)CCN2CCC(n3cc(-c4cc(-c5ccccc5O)nnc4N)cn3)CC2)C(C)(C)C)cc1 [I-458]
  Dmax: < 50%
  DC50: > 1 µM

## Cc1ncsc1-c1ccc(CNC(=O)[C@@H]2C[C@@H](O)CN2C(=O)[C@@H](NC(=O)CCN(C)Cc2ccc(N3CCN(c4cc(-c5ccccc5O)nnc4N)CC3)cc2)C(C)(C)C)cc1 [I-463]
  Dmax: < 50%
  DC50: > 1 µM

## Cc1ncsc1-c1ccc(CNC(=O)[C@@H]2C[C@@H](O)CN2C(=O)[C@@H](NC(=O)CCCN(C)Cc2ccc(N3CCN(c4cc(-c5ccccc5O)nnc4N)CC3)cc2)C(C)(C)C)cc1 [I-464]
  Dmax: < 50%
  DC50: > 1 µM

## Cc1ncsc1-c1ccc(CNC(=O)[C@@H]2C[C@@H](O)CN2C(=O)[C@@H](NC(=O)CCN2CCC(Cn3cc(-c4cc(-c5ccccc5O)nnc4N)cn3)CC2)C(C)(C)C)cc1 [I-466]
  Dmax: < 50%
  DC50: > 1 µM

## Cc1ncsc1-c1ccc(CNC(=O)[C@@H]2C[C@@H](O)CN2C(=O)[C@@H](NC(=O)CCN2CCC[C@@H](Cn3cc(-c4cc(-c5ccccc5O)nnc4N)cn3)C2)C(C)(C)C)cc1 [I-470]
  Dmax: < 50%
  DC50: > 1 µM

## Cc1ncsc1-c1ccc(CNC(=O)[C@@H]2C[C@@H](O)CN2C(=O)[C@@H](NC(=O)CCCN2CCN(Cc3ccc(-c4cc(-c5ccccc5O)nnc4N)cc3)CC2)C(C)(C)C)cc1 [I-475, (2S,4R)-1-((S)-2-(4-(4-(4-(3-amino-6-(2-hydroxyphenyl)pyridazin-4-yl)benzyl)piperazin-1-yl)butanamido)-3,3-dimethylbutanoyl)-4-hydroxy-N-(4-(4-methylthiazol-5-yl)benzyl)pyrrolidine-2-carboxamide]
  Dmax: < 50%
  DC50: > 1 µM

## Cc1ncsc1-c1ccc(CNC(=O)[C@@H]2C[C@@H](O)CN2C(=O)[C@@H](NC(=O)CNCc2cccc(C#Cc3cc(NC(=O)Nc4cc(F)ncc4CO)ccn3)c2)C(C)(C)C)cc1 [I-487, (2S,4R)-1-((S)-2-(2-((3-((4-(3-(2-fluoro-5-(hydroxymethyl)pyridin-4-yl)ureido)pyridin-2-yl)ethynyl)benzyl)amino)acetamido)-3,3-dimethylbutanoyl)-4-hydroxy-N-(4-(4-methylthiazol-5-yl)benzyl)pyrrolidine-2-carboxamide]
  Dmax: < 50%
  DC50: > 1 µM

## Cc1ncsc1-c1ccc(CNC(=O)[C@@H]2C[C@@H](O)CN2C(=O)[C@@H](NC(=O)CCCNCc2cccc(C#Cc3cc(NC(=O)Nc4cc(F)ncc4CO)ccn3)c2)C(C)(C)C)cc1 [I-488]
  Dmax: < 50%
  DC50: > 1 µM

## Cc1ncsc1-c1ccc(CNC(=O)[C@@H]2C[C@@H](O)CN2C(=O)[C@@H](NC(=O)CCCCCNCc2cccc(C#Cc3cc(NC(=O)Nc4cc(F)ncc4CO)ccn3)c2)C(C)(C)C)cc1 [I-489]
  Dmax: < 50%
  DC50: > 1 µM

## Cc1ncsc1-c1ccc(CNC(=O)[C@@H]2C[C@@H](O)CN2C(=O)[C@@H](NC(=O)CCCCCCCNCc2cccc(C#Cc3cc(NC(=O)Nc4cc(F)ncc4CO)ccn3)c2)C(C)(C)C)cc1 [I-490]
  Dmax: < 50%
  DC50: > 1 µM

## Cc1ncsc1-c1ccc(CNC(=O)[C@@H]2C[C@@H](O)CN2C(=O)[C@@H](NC(=O)CNCc2ccc(C#Cc3cc(NC(=O)Nc4cc(F)ncc4CO)ccn3)cc2)C(C)(C)C)cc1 [I-491]
  Dmax: < 50%
  DC50: > 1 µM

## Cc1ncsc1-c1ccc(CNC(=O)[C@@H]2C[C@@H](O)CN2C(=O)[C@@H](NC(=O)CCCCCNCc2ccc(C#Cc3cc(NC(=O)Nc4cc(F)ncc4CO)ccn3)cc2)C(C)(C)C)cc1 [I-493]
  Dmax: < 50%
  DC50: > 1 µM

## Cc1ncsc1-c1ccc(CNC(=O)[C@@H]2C[C@@H](O)CN2C(=O)[C@@H](NC(=O)CCCCCCCNCc2ccc(C#Cc3cc(NC(=O)Nc4cc(F)ncc4CO)ccn3)cc2)C(C)(C)C)cc1 [I-494]
  Dmax: < 50%
  DC50: > 1 µM

## Cc1ncsc1-c1ccc(CNC(=O)[C@@H]2C[C@@H](O)CN2C(=O)[C@@H](NC(=O)CCCN(C)CC#Cc2cnc(N3C4CCC3CN(c3cc(-c5ccccc5O)nnc3N)C4)nc2)C(C)(C)C)cc1 [I-497]
  Dmax: < 50%
  DC50: > 1 µM

## Cc1ncsc1-c1ccc(CNC(=O)[C@@H]2C[C@@H](O)CN2C(=O)[C@@H](NC(=O)CN2CCC(c3cccc(C#Cc4cc(NC(=O)Nc5cc(F)ncc5CO)ccn4)c3)CC2)C(C)(C)C)cc1 [I-498]
  Dmax: < 50%
  DC50: > 1 µM

## Cc1ncsc1-c1ccc(CNC(=O)[C@@H]2C[C@@H](O)CN2C(=O)[C@@H](NC(=O)CCCN2CCC(c3cccc(C#Cc4cc(NC(=O)Nc5cc(F)ncc5CO)ccn4)c3)CC2)C(C)(C)C)cc1 [I-499, (2S,4R)-1-[(2S)-2-[4-[4-[3-[2-[4-[[2-fluoro-5-(hydroxymethyl)-4-pyridyl]carbamoylamino]-2-pyridyl]ethynyl]phenyl]-1-piperidyl]butanoylamino]-3,3-dimethyl-butanoyl]-4-hydroxy-N-[[4-(4-methylthiazol-5-yl)phenyl]methyl]pyrrolidine-2-carboxamide]
  Dmax: < 50%
  DC50: > 1 µM

## Cc1ncsc1-c1ccc(CNC(=O)[C@@H]2C[C@@H](O)CN2C(=O)[C@@H](NC(=O)CN2CCC(c3ccc(C#Cc4cc(NC(=O)Nc5cc(F)ncc5CO)ccn4)cc3)CC2)C(C)(C)C)cc1 [I-500, (2S,4R)-1-((S)-2-(2-(4-(4-((4-(3-(2-fluoro-5-(hydroxymethyl)pyridin-4-yl)ureido)pyridin-2-yl)ethynyl)phenyl)piperidin-1-yl)acetamido)-3,3-dimethylbutanoyl)-4-hydroxy-N-(4-(4-methylthiazol-5-yl)benzyl)pyrrolidine-2-carboxamide]
  Dmax: < 50%
  DC50: > 1 µM

## Cc1ncsc1-c1ccc(CNC(=O)[C@@H]2C[C@@H](O)CN2C(=O)[C@@H](NC(=O)CCCN2CCC(c3ccc(C#Cc4cc(NC(=O)Nc5cc(F)ncc5CO)ccn4)cc3)CC2)C(C)(C)C)cc1 [I-501]
  Dmax: < 50%
  DC50: > 1 µM
